Measured values reported in ChEMBL document CHEMBL5042482, “Novel Allosteric Inhibitors of Deoxyhypusine Synthase against Malignant Melanoma: Design, Synthesis, and Biological Evaluation” (J Med Chem, 2021).
Converted amounts (≈) assume the structure as drawn.

How the values were obtained:
[1] = tested on: A-375; test: Cytotoxicity against human A-375 cells assessed as reduction in cell viability incubated for 24 hrs by CCK-8 assay; assay type: functional, cell-based; conditions: A-375, 24 h
[2] = target: T1, Deoxyhypusine synthase (Homo sapiens, UniProt P49366); test: Inhibition of DHPS (unknown origin ) incubated for 30 mins by NAD/NADH-Glow assay
T1 sequence (P49366 whole entry): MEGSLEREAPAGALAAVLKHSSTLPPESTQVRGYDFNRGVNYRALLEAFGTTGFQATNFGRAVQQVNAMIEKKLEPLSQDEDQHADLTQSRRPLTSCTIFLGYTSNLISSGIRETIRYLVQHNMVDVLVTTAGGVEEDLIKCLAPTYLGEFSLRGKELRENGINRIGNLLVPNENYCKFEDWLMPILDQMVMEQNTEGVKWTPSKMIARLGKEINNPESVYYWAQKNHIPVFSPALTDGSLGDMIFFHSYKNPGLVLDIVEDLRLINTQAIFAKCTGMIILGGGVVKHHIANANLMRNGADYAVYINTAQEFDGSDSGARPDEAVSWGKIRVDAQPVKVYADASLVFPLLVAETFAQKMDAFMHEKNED

[3] = tested on: SK-MEL-28; test: Cytotoxicity against human SK-MEL-28 cells assessed as reduction in cell viability incubated for 24 hrs by CCK-8 assay; assay type: functional, cell-based; conditions: SK-MEL-28, 24 h
[4] = tested on: B16; test: Cytotoxicity against mouse B16 cells assessed as reduction in cell viability incubated for 24 hrs by CCK-8 assay; assay type: functional, cell-based; conditions: B16, 24 h
[5] = Cytotoxicity against human HaCaT cells assessed as reduction in cell viability incubated for 24 hrs by CCK-8 assay; assay type: toxicity, cell-based; conditions: HaCaT cells
[6] = Toxicity in Sprague-Dawley rat assessed as effect on serum ALT level at 160 mg/kg, ip (reference value: 33.70 to 98.70 U/L); assay type: organism-based; conditions: in vivo
[7] = Half life in Sprague-Dawley rat at 160 mg/kg, ip by UHPLC-MS analysis; assay type: ADME, organism-based; conditions: in vivo
[8] = Toxicity in Sprague-Dawley rat assessed as effect on serum Glu level at 160 mg/kg, ip (reference value: 2.65 to 7.65 mmol/L); assay type: organism-based; conditions: in vivo
[9] = Clearance in Sprague-Dawley rat at 160 mg/kg, ip by UHPLC-MS analysis; assay type: ADME, organism-based; conditions: in vivo
[10] = AUC (0 to t) in Sprague-Dawley rat at 160 mg/kg, ip by UHPLC-MS analysis; assay type: ADME, organism-based; parameters: dose 160 mg/kg; conditions: in vivo
[11] = Volume of distribution in Sprague-Dawley rat at 160 mg/kg, ip by UHPLC-MS analysis; assay type: ADME, organism-based; conditions: in vivo
[12] = Aqueous solubility of compound; assay type: physicochemical; conditions: buffer
[13] = Toxicity in Sprague-Dawley rat assessed as effect on serum AST level at 160 mg/kg, ip (reference value: 69.70 to 332.90 U/L); assay type: organism-based; conditions: in vivo
[14] = Acute toxicity in zebra fish assessed as lethal concentration measured for 96 hrs; parameters: species or system Danio rerio; conditions: zebrafish
[15] = AUC (0 to infinity) in Sprague-Dawley rat at 160 mg/kg, ip by UHPLC-MS analysis; assay type: ADME, organism-based; parameters: route intraperitoneal, time infinity, dose 160 mg/kg; conditions: in vivo
[16] = tested on: A-375; test: Anticancer activity against human A-375 cells xenografted in BALB/c mouse assessed as tumor growth inhibition at 80 mg/kg, ip treated every 3 days measured after 3 weeks relative to control; assay type: functional; conditions: A-375, ip, 504 h, read-out: TGI
[17] = Toxicity in Sprague-Dawley rat assessed as effect on serum CRE level at 160 mg/kg, ip (19.43 to 64.97 micromol/L); assay type: organism-based; conditions: in vivo
[18] = Effect on intracellular ROS content in human HaCaT cells by DCFH-DA staining-based method; assay type: toxicity, cell-based

SMILES | IC50 [1] [µM] | IC50 [2] [µM] | IC50 [3] [µM] | IC50 [4] [µM] | CC50 at 24 h [5] [µM] | further results
COc1ccccc1Oc1c(N)nc(-c2cccc(C)c2)nc1Cl | 65.3 | 33.7 | 54 | 13.1 | 11.2 | –
COc1ccccc1Oc1c(N)nc(-c2ccc(Br)cc2)nc1Cl | 0.063 | 0.014 | 0.014 | 4.44 | 58.6 | Activity [6]: 80.47 U/L; half-life [7]: 3.66 h; Activity [8]: 4.345 mmol/L; CL/F [9]: 743 mL/min/kg; AUC(0-t) [10]: 2400 ng·h/mL; Vd [11]: 228.602 L/kg; logS0 [12]: -4.416; Activity [13]: 113.1 U/L; LC50 at 96 h [14]: 3750 µg/mL (≈ 9.23 mM); AUC(0-inf) [15]: 5660 ng·h/mL; inhibition in vivo at 80 mg/kg [16]: 50.3%; Activity [17]: 24.375 µmol/L; Activity [18]: Non-Toxic
N=C(N)NCCCCCCCN | 1.48 | 1.72 | 0.79 | 5.25 | 3.96 | –
COc1ccccc1Oc1c(N)nc(-c2cccc(Br)c2)nc1OCCO | 0.65 | 4.31 | 4.04 | 21.9 | – | –
COc1ccc(-c2nc(N)c(Oc3ccccc3OC)c(OCCO)n2)cc1 | – | – | – | 18.1 | – | –
COc1ccccc1Oc1c(N)nc(-c2cccc(F)c2)nc1Cl | – | – | – | 21.7 | 17 | –
COc1ccccc1Oc1c(N)nc(-c2ccc(C)cc2)nc1OCCO | 2.38 | 0.18 | 6.19 | 8.43 | 56.6 | –
COc1ccccc1Oc1c(N)nc(Cc2ccccc2)nc1OCCO | 0.2 | 0.32 | 14 | 47.4 | – | –
COc1ccccc1Oc1c(N)nc(-c2ccccc2F)nc1OCCO | > 80 | 5.43 | – | 11.8 | 39.5 | –
COc1ccccc1Oc1c(N)nc(-c2cccc(Br)c2)nc1Cl | – | 35.8 | – | 24.6 | 16.1 | –
COc1ccccc1Oc1c(N)nc(-c2ccc(I)cc2)nc1Cl | 0.48 | 0.18 | 1.25 | 5.4 | – | –
COc1cccc(-c2nc(N)c(Oc3ccccc3OC)c(OCCO)n2)c1 | – | 80 | – | 30.4 | 12.7 | –
COc1ccccc1Oc1c(N)nc(-c2ccc(Cl)cc2)nc1OCCO | > 80 | 38.1 | > 80 | 7.74 | – | –
COc1ccccc1Oc1c(N)nc(-c2ccccc2F)nc1Cl | > 80 | 12.9 | – | 13.8 | > 80 | –
COc1ccccc1Oc1c(N)nc(-c2cccc(I)c2)nc1Cl | 2.2 | 38.7 | 4.66 | 27.6 | – | –
COc1ccccc1Oc1c(NS(=O)(=O)c2ccc(C(C)(C)C)cc2)nc(-c2ncccn2)nc1OCCO [BOSENTAN] | 67.4 | 60.8 | 53.6 | > 80 | – | –
